Structures are written as SMILES. Values after ≈ are worked out from the molar mass of the structure shown.

The first test concerns A. baumannii strain ATCC19606. Briefly: Minimum inhibitory concentration (MIC) determination, microbroth dilution (CLSI). The following applies: Acinetobacter baumannii, ATCC19606, 20 h, read-out: ATCC19606 MIC. It is filed as cell-based. The method, then: The in vitro antimicrobial activity of the compounds was determined through microbroth minimum inhibitory concentration (MIC) methodology performed according to the Clinical and Laboratory Standard Institute guidelines (CLSI—M07-A9 Jan. 2012. Methods for Dilution Antimicrobial Susceptibility Tests for Bacteria That Grow Aerobically; Approved Standard—Ninth Edition, Clinical and Laboratory Standards Institute, Wayne/PA, US and the CLSI—M100-S24 Jan. 2014. Performance Standards for Antimicrobial Susceptibility Testing; Approved Standard—Fourth Informational Supplement, Clinical and Laboratory Standards Institute, Wayne/PA, US).
The compound stock solution was freshly prepared at 10× the required top concentration for the MIC determination, i.e. at 1280 mg/L, by reconstitution of the dry compound in 50:50 water:DMSO.
Polystyrene non-treated 96 wells microtiter plates were used for preparing panel containing compound serial twofold diluted at two times the final testing concentration (e.g. range from 64 to 0.06 μg/ml) in cation adjusted Mueller Hinton broth medium (CAMHB).
Inoculum was prepared by the “direct colony suspension method”. Colonies of A. baumannii ATCC19606 or clinical isolates were suspended in saline solution and adjusted to 0.5 McFarland, diluted 100 times in CAMHB broth and 50 μl added to each well (final concentration of cells ˜5×10^(5) CFU/ml and Final volume/well of 100 μl). Microtiter plates were sealed and incubated at 35±2° C.
MICs values were read after 20 hours of incubation and recorded as the lowest concentration of the antimicrobial that inhibits more or equal to 80% of growth of the organism as detected by the unaided eye and using a microtiter plate optical density reader (OD 600 nm).
Tables 2, 3, 4 and 5 provide the minimum inhibitory concentration (MIC) in microgram per milliliter of the compounds of present invention obtained against the A. baumannii strain ATCC19606 (Tables 2, 3, 4 and 5).
`CN1C(=O)[C@H](CCCN)NC(=O)[C@H](CCCN)NCc2ccccc2Sc2ccccc2CNC(=O)[C@@H]1Cc1c[nH]c2ccccc12` [Example 2, (12S,15S,18S)— 15,18-Bis-(3-amino-propyl)-12-(1H-indol-3-ylmethyl)-13-methyl-2-thia-10,13,16,19-tetraaza-tricyclo[19.4.0.0*3,8*]pentacosa-1(21),3,5,7,22,24-hexaene-11,14,17-trione]: the minimal inhibitory concentration (MIC) was found to be 4 µg/mL (≈ 6.1 µM).

The test is the same for the next values; noted with them: Acinetobacter baumannii; A. baumannii ATCC19606; CAMHB; read after 20 hours; >=80% growth inhibition; read-out: ATCC19606 MIC.
For `CN1C(=O)[C@H](CCCCN)NC(=O)[C@H](CCCN)NCc2ccccc2Sc2ccccc2CNC(=O)[C@@H]1Cc1c[nH]c2ccccc12` [Example 1, (12S,15S,18S)-15-(4-Amino-butyl)-18-(3-amino-propyl)-12-(1H-indol-3-ylmethyl)-13-methyl-2-thia-10,13,16,19-tetraaza-tricyclo[19.4.0.0*3,8*]pentacosa-1(21),3,5,7,22,24-hexaene-11,14,17-trione], the MIC came to 4 µg/mL (≈ 5.97 µM).
On to `CN1C(=O)[C@H](CCCCN)NC(=O)[C@H](C2CCNCC2)NCc2ccccc2Sc2ccccc2CNC(=O)[C@@H]1Cc1c[nH]c2ccccc12` [Example 3, (12S,15S,18S)-15-(4-Amino-butyl)-12-(1H-indol-3-ylmethyl)-13-methyl-18-piperidin-4-yl-2-thia-10,13,16,19-tetraaza-tricyclo[19.4.0.0*3,8*]pentacosa-1(21),3,5,7,22,24-hexaene-11,14,17-trione], for which the MIC amounted to 16 µg/mL (≈ 23 µM).
Consider `CN1C(=O)[C@H](CCCCN)NC(=O)[C@H](CCCN)NCc2ccccc2Sc2ccc(Cl)cc2CNC(=O)[C@@H]1Cc1c[nH]c2ccccc12` [Example 4, (12S,15S,18S)-15-(4-Amino-butyl)-18-(3-amino-propyl)-6-chloro-12-(1H-indol-3-ylmethyl)-13-methyl-2-thia-10,13,16,19-tetraaza-tricyclo[19.4.0.0*3,8*]pentacosa-1(21),3,5,7,22,24-hexaene-11,14,17-trione], for which the MIC turned out to be 1 µg/mL (≈ 1.42 µM).
As for `CN1C(=O)[C@H](CCCCN)NC(=O)[C@H](CNC(=N)N)NCc2ccccc2Sc2ccccc2CNC(=O)[C@@H]1Cc1c[nH]c2ccccc12` [Example 5, N-[(11S,14S,17S)-14-(4-Amino-butyl)-17-(1H-indol-3-ylmethyl)-16-methyl-12,15,18-trioxo-2-thia-10,13,16,19-tetraaza-tricyclo[19.4.0.0*3,8*]pentacosa-1(25),3(8),4,6,21,23-hexaen-11-ylmethyl]-guanidine], the MIC amounted to 32 µg/mL (≈ 46.8 µM).
Turning to `CN1C(=O)[C@H](CCCCN)NC(=O)[C@H](CCCN)NCc2ccccc2Sc2cc(Cl)ccc2CNC(=O)[C@@H]1Cc1c[nH]c2ccccc12` [Example 6, (12S,15S,18S)-15-(4-Amino-butyl)-18-(3-amino-propyl)-5-chloro-12-(1H-indol-3-ylmethyl)-13-methyl-2-thia-10,13,16,19-tetraaza-tricyclo[19.4.0.0*3,8*]pentacosa-1(21),3,5,7,22,24-hexaene-11,14,17-trione], the MIC came out at 2 µg/mL (≈ 2.84 µM).
As for `COc1ccc2c(c1)CNC(=O)[C@H](Cc1c[nH]c3ccccc13)N(C)C(=O)[C@H](CCCCN)NC(=O)[C@H](CCCN)NCc1ccccc1S2` [Example 7, (12S,15S,18S)-15-(4-Amino-butyl)-18-(3-amino-propyl)-12-(1H-indol-3-ylmethyl)-6-methoxy-13-methyl-2-thia-10,13,16,19-tetraaza-tricyclo[19.4.0.0*3,8*]pentacosa-1(21),3,5,7,22,24-hexaene-11,14,17-trione], the MIC was 0.5 µg/mL (≈ 0.714 µM).
As for `Cc1cccc2c1Sc1ccccc1CN[C@@H](CCCN)C(=O)N[C@@H](CCCCN)C(=O)N(C)[C@@H](Cc1c[nH]c3ccccc13)C(=O)NC2` [Example 8, (12S,15S,18S)-15-(4-Amino-butyl)-18-(3-amino-propyl)-12-(1H-indol-3-ylmethyl)-4,13-dimethyl-2-thia-10,13,16,19-tetraaza-tricyclo[19.4.0.0*3,8*]pentacosa-1(21),3,5,7,22,24-hexaene-11,14,17-trione], the MIC was 0.5 µg/mL (≈ 0.731 µM).
Same read-out and setting: the same measure for `Cc1ccc2c(c1)Sc1ccccc1CN[C@@H](CCCN)C(=O)N[C@@H](CCCCN)C(=O)N(C)[C@@H](Cc1c[nH]c3ccccc13)C(=O)NC2` [Example 9, (12S,15S,18S)-15-(4-Amino-butyl)-18-(3-amino-propyl)-12-(1H-indol-3-ylmethyl)-5,13-dimethyl-2-thia-10,13,16,19-tetraaza-tricyclo[19.4.0.0*3,8*]pentacosa-1(21),3,5,7,22,24-hexaene-11,14,17-trione]: 16 µg/mL (≈ 23.4 µM); for `Cc1ccc2c(c1)CNC(=O)[C@H](Cc1c[nH]c3ccccc13)N(C)C(=O)[C@H](CCCCN)NC(=O)[C@H](CCCN)NCc1ccccc1S2` [Example 10, (12S,15S,18S)-15-(4-Amino-butyl)-18-(3-amino-propyl)-12-(1H-indol-3-ylmethyl)-6,13-dimethyl-2-thia-10,13,16,19-tetraaza-tricyclo[19.4.0.0*3,8*]pentacosa-1(21),3,5,7,22,24-hexaene-11,14,17-trione]: 2 µg/mL (≈ 2.92 µM).
Regarding `CN1C(=O)[C@H](CCCCN)NC(=O)[C@H](CCCN)NCc2ccccc2Sc2c(Cl)cccc2CNC(=O)[C@@H]1Cc1c[nH]c2ccccc12` [Example 11, (12S,15S,18S)-15-(4-Amino-butyl)-18-(3-amino-propyl)-4-chloro-12-(1H-indol-3-ylmethyl)-13-methyl-2-thia-10,13,16,19-tetraaza-tricyclo[19.4.0.0*3,8*]pentacosa-1(21),3,5,7,22,24-hexaene-11,14,17-trione], the MIC is 0.5 µg/mL (≈ 0.71 µM).
On the same count and under the same terms, the same measure for `CN1C(=O)[C@H](CCCCN)NC(=O)[C@H](CCCN)NCc2ccccc2Sc2c(cccc2C(F)(F)F)CNC(=O)[C@@H]1Cc1c[nH]c2ccccc12` [Example 12, (12S,15S,18S)-15-(4-Amino-butyl)-18-(3-amino-propyl)-12-(1H-indol-3-ylmethyl)-13-methyl-4-trifluoromethyl-2-thia-10,13,16,19-tetraaza-tricyclo[19.4.0.0*3,8*]pentacosa-1(21),3,5,7,22,24-hexaene-11,14,17-trione]: 0.5 µg/mL (≈ 0.678 µM); for `CN1C(=O)[C@H](CCCCN)NC(=O)[C@H](CCCN)NCc2ccccc2Sc2cc(C(F)(F)F)ccc2CNC(=O)[C@@H]1Cc1c[nH]c2ccccc12` [Example 13, (12S,15S,18S)-15-(4-Amino-butyl)-18-(3-amino-propyl)-12-(1H-indol-3-ylmethyl)-13-methyl-5-trifluoromethyl-2-thia-10,13,16,19-tetraaza-tricyclo[19.4.0.0*3,8*]pentacosa-1(21),3,5,7,22,24-hexaene-11,14,17-trione]: 2 µg/mL (≈ 2.71 µM).
Take `CN1C(=O)[C@H](CCCCN)NC(=O)[C@H](CCCN)NCc2ccccc2Sc2ccc(C(F)(F)F)cc2CNC(=O)[C@@H]1Cc1c[nH]c2ccccc12` [Example 14, (12S,15S,18S)-15-(4-Amino-butyl)-18-(3-amino-propyl)-12-(1H-indol-3-ylmethyl)-13-methyl-6-trifluoromethyl-2-thia-10,13,16,19-tetraaza-tricyclo[19.4.0.0*3,8*]pentacosa-1(21),3,5,7,22,24-hexaene-11,14,17-trione]: the MIC was found to be 1 µg/mL (≈ 1.36 µM).
`CN1C(=O)[C@H](CCCCN)NC(=O)[C@H](CCCN)NCc2ccccc2Sc2ccccc2CNC(=O)[C@@H]1Cc1c[nH]c2cc(Cl)ccc12` [Example 15, (12S,15S,18S)-15-(4-Amino-butyl)-18-(3-amino-propyl)-12-(6-chloro-1H-indol-3-ylmethyl)-13-methyl-2-thia-10,13,16,19-tetraaza-tricyclo[19.4.0.0*3,8*]pentacosa-1(21),3,5,7,22,24-hexaene-11,14,17-trione]: the MIC came out at 32 µg/mL (≈ 45.4 µM).
For `CN1C(=O)[C@H](CCCCN)NC(=O)[C@H](CCCN)NCc2ccccc2Sc2ccccc2CNC(=O)[C@@H]1Cc1cn(C)c2cc(Cl)ccc12` [Example 16, (12S,15S,18S)-15-(4-Amino-butyl)-18-(3-amino-propyl)-12-(6-chloro-1-methyl-1H-indol-3-ylmethyl)-13-methyl-2-thia-10,13,16,19-tetraaza-tricyclo[19.4.0.0*3,8*]pentacosa-1(21),3,5,7,22,24-hexaene-11,14,17-trione], the MIC came to 32 µg/mL (≈ 44.5 µM).
Same read-out and setting: the same measure for `CN1C(=O)[C@H](CCCCN)NC(=O)[C@H](CCCN)NCc2ccccc2Sc2ccc(Cl)cc2CNC(=O)[C@@H]1Cc1cn(C)c2ccccc12` [Example 17, (12S,15S,18S)-15-(4-Amino-butyl)-18-(3-amino-propyl)-6-chloro-13-methyl-12-(1-methyl-1H-indol-3-ylmethyl)-2-thia-10,13,16,19-tetraaza-tricyclo[19.4.0.0*3,8*]pentacosa-1(21),3,5,7,22,24-hexaene-11,14,17-trione]: 32 µg/mL (≈ 44.5 µM).

Source of the values: patent US10030047B2 (Hoffmann-La Roche Inc., priority 2015, dated 2018).
